Data taken from patent US20130310625A1, “VELIPARIB IN COMBINATION WITH WHOLE BRAIN RADIATION THERAPY FOR THE TREATMENT OF BRAIN METASTASES” (AbbVie Inc., priority 2012, published 2013).
Entries after “also recorded” stand apart in the source; their conditions may differ.

How the values were obtained:
[1] = preclinical study; cited from earlier work
[2] = Phase 1 safety and tolerability of veliparib with WBRT (AEs by NCI CTCAE v3.0, DLTs); format: in vivo, human
Protocol: (§1) This example is a Phase 1, multicenter, dose-escalation study evaluating the safety, tolerability and pharmacokinetics of veliparib administered concurrently with conventional WBRT in subjects with solid primary tumors metastatic to the brain.
(§2) Patients received WBRT delivered in 2.5 Gy fractions once a day (QD) for a total of 15 fractions or WBRT delivered at 3.0 Gy fractions QD for a total of 10 fractions.
(§3) Veliparib dose-escalation began at 10 mg and increased to 20, 30, 50, 80, 100, 150, 200, and 300 mg twice a day (BID) through out the entire course of WBRT (Table 2); the final WBRT fraction was followed by 1 extra day of veliparib.
AEs were assessed by NCI CTCAE v3.0.

[3] = nonhuman primate model (Muscal et al. 2010); cited from earlier work
[4] = Phase 1 pharmacokinetics of veliparib administered concurrently with WBRT in patients with brain metastases; format: in vivo, human
Protocol: as §1, §2, §3
To determine PK of veliparib, intensive PK sampling was performed on Day 1 of the WBRT schedules (15 and 10 day) at the following time points: 0, 30, 1, 2, 6 and 24 hours. PK as was also performed on Day 6 for both WBRT schedules at the following time points: 0, 30 min, 1, 2, and 6 For the 15 Day schedule sampling was performed on Day 15 at 0, 30 min, 1, 2 and 6 hours. For the 10 day schedule only a 0 hour sample was collected. Post treatment samples were collected 24-72 hours after the last dose of veliparib for both WBRT schedules.

brain metastases = details: radio-sensitizer added to WBRT, randomized controlled studies; cited from earlier work
[5] = N = 66, possibly or probably related to veliparib

## C[C@]1(c2nc3c(C(N)=O)cccc3[nH]2)CCCN1 [Veliparib, 2-[(2R)-2-methylpyrrolidin-2-yl]-1H-benzimidazole-4-carboxamide]
[1]
  blood-brain barrier crossing and accumulation in brain tumor tissue: shown to cross the blood-brain barrier and accumulate in brain tumor tissue
[2]; 150 mg veliparib BID, one patient each
  DLT: grade 3 hypokalemia; also recorded: grade 3 hyponatraemia
[2]; 10, 20, 30, 50, 80, 100, 200 and 300 mg dose levels
  dose limiting toxicities (DLTs): No dose limiting toxicities (DLTs) were observed
[2]; N = 66
  Any Event, Any Grade, treatment-emergent AEs possibly or probably related to veliparib: 37 (56) n (%)
  Any Event, Grade 3/4 AEs possibly or probably related to veliparib: 10 (15) n (%)
[2]; [5]
  Decreased Appetite, Any Grade: 8 (12) n (%)
  Fatigue, Any Grade: 22 (33.3) n (%)
  Fatigue, Grade 3/4: 3 (5) n (%)
  Nausea, Any Grade: 13 (19.7) n (%)
  Nausea, Grade 3/4: 1 (2) n (%)
  Vomiting, Any Grade: 8 (12) n (%)
[2]; all causes
  patients with AEs leading to study drug discontinuation: 8 (12%) patients
[2]; in vivo
  patients with AEs leading to study drug discontinuation possibly or probably related to veliparib: 2 (3%) patients
[3]
  level in CSF: measured in CSF in a range that has been shown to inhibitor PARP activity in vivo in humans
[4]; 10 to 150 mg BID dose range
  Increase in veliparib exposure (Cmax and AUC) with increase in veliparib dose: approximately dose-proportional
[4]; Cmax and AUC on Day 1, Day 6 and Day 15
  veliparib accumulation following BID dosing: minimal
[4]; exposure Day 6 (fasting) vs Day 15 (non-fasting)
  effect of food on veliparib oral bioavailability: no significant effect of food
[4]; human, plasma, oral veliparib BID with WBRT, patients
  Tmax: 1 to 2 h
[4]; mean±SD, n=45, 10 to 150 mg BID dose range
  oral clearance: 21.6 ± 14.2 L/h

## O=C(O)c1nn(Cc2ccc(Cl)cc2Cl)c2ccccc12 [lonidamine]
Brain metastases
  benefit in local brain tumor control or overall survival: failing to benefit

## COCC(O)Cn1ccnc1[N+](=O)[O-] (stereo not shown) [misonidazole]
Brain metastases
  benefit in local brain tumor control or overall survival: failing to benefit

## Cc1ncc([N+](=O)[O-])n1CCO [metronidazole]
Brain metastases
  benefit in local brain tumor control or overall survival: failing to benefit

## O=c1[nH]c(=O)n([C@H]2C[C@H](O)[C@@H](CO)O2)cc1Br [bromodeoxyuridine]
Brain metastases
  benefit in local brain tumor control or overall survival: failing to benefit

## CC(=O)[O-].CC(=O)[O-].CCc1c(CC)c2cc3nc(cnc4cc(OCCOCCOCCOC)c(OCCOCCOCCOC)cc4ncc4nc(cc1[n-]2)C(CCCO)=C4C)C(C)=C3CCCO.O.[Gd+3] [motexafin gadolinium]
Brain metastases
  benefit in local brain tumor control or overall survival: failing to benefit

## Cc1cc(C)cc(NC(=O)Cc2ccc(OC(C)(C)C(=O)O)cc2)c1 [efaproxiral]
Brain metastases
  benefit in local brain tumor control or overall survival: failing to benefit
